Test results: ChEMBL document CHEMBL5726731, “Substituted benzenesulfonamides as sodium channel blockers” (2019)

assay: Measurement of Sodium Ion Channel Blocking Effects: In order to measure the sodium ion channel blocking effect, an IonFlux16 Auto patch clamp system (Fluxion, Inc.) and a plate for exclusive use were used. The cells were distributed in an extracellular solution (4 mM KCl, 138 mM NaCl, 1 mM MgCl2, 1.8 mM CaCl2, 5.6 mM glucose, 10 mM HEPES, pH 7.45), and then dispensed in the specified region of the plate, and each of the prepared compound samples was diluted at various concentrations, and then dispensed in the specified region of the plate.; format: cell-based

Row | IC50 [nM] | Structure (SMILES)
1 | 435 | COc1ccc(Nc2cc(F)c(S(=O)(=O)Nc3cscn3)cc2Cl)c(N2CC[C@H](N(C)C)C2)c1
2 | 369 | CNC1CCN(c2cc(OC(F)(F)F)ccc2Nc2c(F)cc(S(=O)(=O)Nc3cscn3)cc2F)C1 (stereo not given)
3 | 277 | COC1CCN(c2cc(F)ccc2Nc2cc(F)c(S(=O)(=O)Nc3cscn3)cc2Cl)C1 (stereo not given)
4 | 28 | CN[C@H]1CCN(c2cc(C(F)(F)F)ccc2Nc2ccc(S(=O)(=O)Nc3cscn3)cc2Cl)C1
5 | 489 | CNC1CCN(c2cc(C)ccc2Nc2cc(F)c(S(=O)(=O)Nc3cscn3)cc2Cl)C1 (stereo not given)
6 | 541 | CN1CCN(c2cc(C(F)(F)F)ccc2Nc2cc(F)c(S(=O)(=O)Nc3cscn3)cc2Cl)CC1
7 | > 1000 | CN[C@@H]1CCCN(c2cc(OC)ccc2Nc2ccc(S(=O)(=O)Nc3cscn3)cc2)C1
8 | 1170 | CN(C)[C@H]1CCN(c2cc(C(F)(F)F)ccc2Nc2cc(F)c(S(=O)(=O)Nc3cscn3)cc2Cl)C1
9 | > 1000 | O=S(=O)(Nc1cscn1)c1ccc(Nc2ccc(F)cc2N2CC[C@@H](F)C2)cc1
10 | 126 | CN(C)[C@@H]1CCN(c2cc(OC(F)F)ccc2Nc2cc(F)c(S(=O)(=O)Nc3cscn3)cc2Cl)C1
11 | 125 | O=S(=O)(Nc1cscn1)c1cc(Cl)c(Nc2ccc(Cl)cc2N2CCC(N3CCCC3)C2)cc1F (stereo not given)
12 | 27 | CNC1CCN(c2cc(C(F)(F)F)ccc2Nc2ccc(S(=O)(=O)Nc3cscn3)cc2Cl)C1 (stereo not given)
13 | > 1000 | CNC1CCN(c2cc(OC)ccc2Nc2ccc(S(=O)(=O)Nc3cscn3)c(F)c2)C1 (stereo not given)
14 | 212 | CC(=O)N[C@@H]1CCN(c2cc(C(F)(F)F)ccc2Nc2cc(F)c(S(=O)(=O)Nc3cscn3)cc2Cl)C1
15 | 100 | CN(C)CCN(C)c1cc(F)ccc1Nc1cc(F)c(S(=O)(=O)Nc2cscn2)cc1Cl
16 | 4 | CNCCN(C)c1ccccc1Nc1cc(F)c(S(=O)(=O)Nc2ncc(Cl)s2)cc1Cl
17 | 44 | CN[C@@H]1CCCN(c2cc(Cl)ccc2Nc2cc(F)c(S(=O)(=O)Nc3cscn3)cc2Cl)C1
18 | 470 | CNCCN(C)c1cc(OC)ccc1Nc1cc(F)c(S(=O)(=O)Nc2ncc(F)cn2)cc1Cl
19 | 120 | CC(=O)N[C@@H]1CCN(c2cc(Cl)ccc2Nc2cc(F)c(S(=O)(=O)Nc3cscn3)cc2Cl)C1
20 | > 10000 | CN(C)[C@H]1CCN(c2cc(F)ccc2Nc2cc(F)c(S(=O)(=O)Nc3cscn3)cc2Cl)C1
21 | > 1000 | O=S(=O)(Nc1cscn1)c1ccc(Nc2ccc(F)cc2N2CC[C@@H](F)C2)cc1F
22 | 140 | COC1CCN(c2cc(C(F)(F)F)ccc2Nc2cc(F)c(S(=O)(=O)Nc3cscn3)cc2Cl)C1 (stereo not given)
23 | 103 | CN(C)[C@H]1CCN(c2cc(C(F)(F)F)ccc2Nc2ccc(S(=O)(=O)Nc3cscn3)cc2Cl)C1

Row | IC50 [nM] | Structure (SMILES)
24 | > 1000 | O=S(=O)(Nc1cscn1)c1cc(F)c(Nc2ccc(F)cc2N2CC[C@@H](F)C2)c(F)c1
25 | > 1000 | CN1CCN(c2cc(F)ccc2Nc2cc(F)c(S(=O)(=O)Nc3cscn3)cc2Cl)CC1
26 | 241 | NC1CCN(c2cc(F)ccc2Nc2ccc(S(=O)(=O)Nc3cscn3)cc2Cl)C1 (stereo not given)
27 | 53 | CNC1CCN(c2cc(OC(F)(F)F)ccc2Nc2cc(F)c(S(=O)(=O)Nc3cscn3)cc2Cl)C1 (stereo not given)
28 | 182 | CCN(CC)C1CCN(c2cc(Cl)ccc2Nc2cc(F)c(S(=O)(=O)Nc3cscn3)cc2Cl)C1 (stereo not given)
29 | 70 | CNCCN(C)c1ccccc1Nc1cc(F)c(S(=O)(=O)Nc2ccc(F)cn2)cc1Cl
30 | 120 | CNCCN(C)c1cc(Cl)ccc1Nc1cc(F)c(S(=O)(=O)Nc2ncc(F)cn2)cc1Cl
31 | 50 | CN[C@H]1CCN(c2cc(F)ccc2Nc2cc(F)c(S(=O)(=O)Nc3cscn3)cc2Cl)C1
32 | 372 | CNC1CCN(c2cc(F)ccc2Nc2ccc(S(=O)(=O)Nc3cscn3)c(F)c2)C1 (stereo not given)
33 | 184 | CNCCN(C)c1cc(OC)ccc1Nc1cc(F)c(S(=O)(=O)Nc2ncc(F)s2)cc1Cl
34 | 460 | CNCCN(C)c1cc(C#N)ccc1Nc1cc(F)c(S(=O)(=O)Nc2ccccn2)cc1Cl
35 | > 1000 | CN1CCN(c2cc(F)ccc2Nc2ccc(S(=O)(=O)Nc3cscn3)cc2Cl)CC1
36 | 50 | CNCCN(C)c1cc(Cl)ccc1Nc1cc(F)c(S(=O)(=O)Nc2cscn2)cc1Cl
37 | 236 | O=S(=O)(Nc1cscn1)c1cc(Cl)c(Nc2ccc(F)cc2N2CC[C@@H](F)C2)cc1F
38 | 149 | O=S(=O)(Nc1cscn1)c1cc(Cl)c(Nc2ccc(F)cc2N2CCCNCC2)cc1F
39 | 375 | CNC1CCN(c2c(F)cccc2Nc2ccc(S(=O)(=O)Nc3cscn3)cc2Cl)C1 (stereo not given)
40 | > 1000 | CN[C@@H]1CCCN(c2cc(F)ccc2Nc2ccc(S(=O)(=O)Nc3cscn3)cc2)C1
41 | > 1000 | CN[C@@H]1CCCN(c2cc(OC)ccc2Nc2ccc(S(=O)(=O)Nc3cscn3)cc2Cl)C1
42 | > 300 | CN[C@@H]1CCN(c2cc(F)ccc2Nc2ccc(S(=O)(=O)Nc3cscn3)c(F)c2)C1
43 | 352 | COC1CCN(c2cc(C(F)(F)F)ccc2Nc2ccc(S(=O)(=O)Nc3cscn3)cc2Cl)C1 (stereo not given)
44 | 23 | CN[C@H]1CCN(c2cc(C(F)(F)F)ccc2Nc2cc(F)c(S(=O)(=O)Nc3cscn3)cc2Cl)C1
45 | 140 | CNCCN(C)c1cc(OC)ccc1Nc1cc(F)c(S(=O)(=O)Nc2cscn2)cc1Cl
46 | 20 | CNCCN(C)c1cc(Cl)ccc1Nc1cc(F)c(S(=O)(=O)Nc2nccs2)cc1Cl

Row | IC50 [nM] | Structure (SMILES)
47 | 160 | CN1CCN(c2cc(OC(F)F)ccc2Nc2cc(F)c(S(=O)(=O)Nc3cscn3)cc2Cl)CC1
48 | > 1000 | NC1CCN(c2cc(F)ccc2Nc2ccc(S(=O)(=O)Nc3cscn3)c(F)c2)C1 (stereo not given)
49 | 1010 | CNC1CCN(c2cc(F)ccc2Nc2ccc(S(=O)(=O)Nc3cscn3)cc2Cl)C1 (stereo not given)
50 | > 1000 | CNC1CCN(c2nc(Cl)ccc2Nc2cc(F)c(S(=O)(=O)Nc3cscn3)cc2Cl)C1 (stereo not given)
51 | 412 | CNC1CCN(c2cc(F)ccc2Nc2c(F)cc(S(=O)(=O)Nc3cscn3)cc2F)C1 (stereo not given)
52 | 447 | CNC1CCN(c2cc(OC(F)(F)F)ccc2Nc2ccc(S(=O)(=O)Nc3cscn3)cc2)C1 (stereo not given)
53 | 350 | CN(C)CCN(C)c1cc(F)ccc1Nc1ccc(S(=O)(=O)Nc2cscn2)cc1Cl
54 | 100 | CN(C)[C@@H]1CCN(c2cc(F)ccc2Nc2cc(F)c(S(=O)(=O)Nc3cscn3)cc2Cl)C1
55 | 1930 | CC(=O)N[C@@H]1CCN(c2cc(F)ccc2Nc2cc(F)c(S(=O)(=O)Nc3cscn3)cc2Cl)C1
56 | 50 | CNCCN(C)c1ccccc1Nc1cc(F)c(S(=O)(=O)Nc2nccs2)cc1Cl
57 | 70 | CNCCN(C)c1cc(C(F)(F)F)ccc1Nc1cc(F)c(S(=O)(=O)Nc2ccccn2)cc1Cl
58 | 80 | CNCCN(C)c1cc(Cl)ccc1Nc1cc(F)c(S(=O)(=O)Nc2ccc(F)cn2)cc1Cl
59 | 21 | CNC1CCN(c2cc(C(F)(F)F)ccc2Nc2cc(F)c(S(=O)(=O)Nc3cscn3)cc2Cl)C1 (stereo not given)
60 | 20 | CNCCN(C)c1cc(C#N)ccc1Nc1cc(F)c(S(=O)(=O)Nc2nccs2)cc1Cl
61 | 27 | CNCCN(C)c1ccccc1Nc1cc(F)c(S(=O)(=O)Nc2ncc(F)s2)cc1Cl
62 | 108 | CNC1CCN(c2cc(OC(F)(F)F)ccc2Nc2ccc(S(=O)(=O)Nc3cscn3)c(F)c2)C1 (stereo not given)
63 | 216 | CC(=O)N[C@@H]1CCN(c2cc(C(F)(F)F)ccc2Nc2ccc(S(=O)(=O)Nc3cscn3)cc2Cl)C1
64 | 200 | CNCCN(C)c1cc(OC)ccc1Nc1cc(F)c(S(=O)(=O)Nc2ccc(F)cn2)cc1Cl
65 | 362 | CN[C@@H]1CCN(c2cc(F)ccc2Nc2ccc(S(=O)(=O)Nc3cscn3)cc2Cl)C1
66 | 73 | CN[C@@H]1CCCN(c2cc(OC)ccc2Nc2cc(F)c(S(=O)(=O)Nc3cscn3)cc2Cl)C1
67 | 10 | CNCCN(C)c1cc(C(F)(F)F)ccc1Nc1cc(F)c(S(=O)(=O)Nc2nccs2)cc1Cl
68 | 6 | CNCCN(C)c1cc(OC)ccc1Nc1cc(F)c(S(=O)(=O)Nc2ncc(Cl)s2)cc1Cl
69 | 50 | CNCCN(C)c1cc(C(F)(F)F)ccc1Nc1cc(F)c(S(=O)(=O)Nc2ccc(F)cn2)cc1Cl

Row | IC50 [nM] | Structure (SMILES)
70 | 32 | CNC1CCN(c2cc(C#N)ccc2Nc2cc(F)c(S(=O)(=O)Nc3cscn3)cc2Cl)C1 (stereo not given)
71 | 241 | CN[C@H]1CCN(c2cc(F)ccc2Nc2ccc(S(=O)(=O)Nc3cscn3)c(F)c2)C1
72 | 205 | NC1CCN(c2cc(F)ccc2Nc2cc(F)c(S(=O)(=O)Nc3cscn3)cc2Cl)C1 (stereo not given)
73 | 686 | CNC1CCN(c2c(F)cccc2Nc2ccc(S(=O)(=O)Nc3cscn3)c(F)c2)C1 (stereo not given)
74 | 278 | CN(C)[C@@H]1CCN(c2cc(C(F)(F)F)ccc2Nc2cc(F)c(S(=O)(=O)Nc3cscn3)cc2Cl)C1
75 | 20 | CNCCN(C)c1ccccc1Nc1cc(F)c(S(=O)(=O)Nc2cc(C)on2)cc1Cl
76 | 20 | CNCCN(C)c1cc(OC)ccc1Nc1cc(F)c(S(=O)(=O)Nc2nccs2)cc1Cl
77 | 6580 | CC(=O)N[C@@H]1CCN(c2cc(F)ccc2Nc2ccc(S(=O)(=O)Nc3cscn3)cc2Cl)C1
78 | > 1000 | O=S(=O)(Nc1cscn1)c1ccc(Nc2ccc(F)cc2N2CC[C@@H](F)C2)c(Cl)c1
79 | > 1000 | CNC1CCN(c2cc(Cl)cnc2Nc2cc(F)c(S(=O)(=O)Nc3cscn3)cc2Cl)C1 (stereo not given)
80 | 44 | CN[C@@H]1CCN(c2cc(F)ccc2Nc2cc(F)c(S(=O)(=O)Nc3cscn3)cc2Cl)C1
81 | > 1000 | CNC1CCN(c2cc(OC)ccc2Nc2ccc(S(=O)(=O)Nc3cscn3)cc2Cl)C1 (stereo not given)
82 | > 1000 | CN[C@@H]1CCCN(c2cc(OC)ccc2Nc2c(F)cc(S(=O)(=O)Nc3cscn3)cc2F)C1
83 | 120 | CNCCN(C)c1ccccc1Nc1cc(F)c(S(=O)(=O)Nc2ccccn2)cc1Cl
84 | > 1000 | CN[C@@H]1CCN(c2cc(F)ccc2Nc2c(F)cc(S(=O)(=O)Nc3cscn3)cc2F)C1
85 | 46 | CN(C)[C@H]1CCN(c2cc(OC(F)F)ccc2Nc2cc(F)c(S(=O)(=O)Nc3cscn3)cc2Cl)C1
86 | 357 | CN[C@@H]1CCCN(c2cc(F)ccc2Nc2ccc(S(=O)(=O)Nc3cscn3)c(F)c2)C1
87 | > 1000 | CN[C@@H]1CCN(c2cc(F)ccc2Nc2ccc(S(=O)(=O)Nc3cscn3)cc2)C1
88 | 1220 | COC1CCN(c2cc(F)ccc2Nc2ccc(S(=O)(=O)Nc3cscn3)cc2Cl)C1 (stereo not given)
89 | > 1000 | CN[C@@H]1CCCN(c2cc(OC)ccc2Nc2ccc(S(=O)(=O)Nc3cscn3)c(F)c2)C1
90 | 240 | CNCCN(C)c1cc(F)ccc1Nc1cc(F)c(S(=O)(=O)Nc2cc(C)[nH]n2)cc1Cl
